Laboratory results published in article PMC11850406, “Large-scale screening of HIV-1 T-cell epitopes restricted by 12 prevalent HLA-A allotypes in Northeast Asia and universal detection of HIV-1-specific CD8^+ T cells” (Frontiers in Microbiology, 2025).
pIC50: −log10 of the molar value. Where two headings read alike, the source gives them in different places. Where no end group is shown, it is not given here.

Assays:
[1] = target: T1, HLA-A0201 (Homo sapiens, UniProt P04439, D140Y/D185E/D98H/E176V/E277Q/G131W/G231S/I119V/I121R/I166T/I218V/L300P/L318F/N151K/N90K/P208A/P217A/Q86G/Q94H/R138H/R169H/T345S); test: cell-based; format: binding; settings: for inhibition at 5 µM / inhibition at 15 µM / 5-μM inhibition (%) / 15-μM inhibition (%): 24 h; for inhibition at 5 µM: read-out: 5-μM inhibition (%); for inhibition at 15 µM: read-out: 15-μM inhibition (%)
T1 construct: expressed in transfected cells; host or cells: HMy2.CIR

[2] = target: T2, HLA-A0203 (Homo sapiens, UniProt P04439, A173T/D140Y/D185E/D98H/E277Q/G131W/G231S/I119V/I121R/I166T/I218V/L180W/L300P/L318F/N151K/N90K/P208A/P217A/Q86G/Q94H/R138H/R169H/T345S); test: cell-based; format: binding; settings: for inhibition at 5 µM / inhibition at 15 µM / 5-μM inhibition (%) / 15-μM inhibition (%): 24 h; for inhibition at 5 µM: read-out: 5-μM inhibition (%); for inhibition at 15 µM: read-out: 15-μM inhibition (%)
T2 construct: expressed in transfected cells; host or cells: HMy2.CIR

[3] = target: HLA-A1102 (Homo sapiens, UniProt P04439, A114D/D185E/E176A/E43K/F33Y/L180Q/S129P/T187R); test: cell-based; format: binding; settings: A1102, 24 h, 4°C, flow cytometry; for 5-μM inhibition (%): peptide 5 μM vs FITC-labeled reference peptide 300 nM; for 15-μM inhibition (%): peptide 15 μM vs FITC-labeled reference peptide 300 nM
[4] = target: HLA-A3303 (Homo sapiens, UniProt P04439, A270S/D185E/E176V/E277Q/E87N/F33T/G231S/H175R/I121M/I218V/I322F/K168Q/L300P/L318F/M331R/P217A/Q86R/Q94H/R138Q/T323A/T345S/T97I/V358M); test: Peptide competitive binding assay, HMy2.CIR cells expressing A3303; settings: for inhibition at 5 µM / 5-μM inhibition (%): peptide 5 μM vs FITC-labeled reference peptide 300 nM; for inhibition at 5 µM / inhibition at 15 µM / 5-μM inhibition (%) / 15-μM inhibition (%): 24 h, 4°C, flow cytometry; for inhibition at 15 µM / 15-μM inhibition (%): peptide 15 μM vs FITC-labeled reference peptide 300 nM; for pIC50: read-out: Affinity
[5] = target: T3, HLA-A3101 (Homo sapiens, UniProt P04439, A270S/D185E/E176V/E277Q/F33T/G231S/G80R/H175R/I121M/I218V/I322F/K168Q/L300P/L318F/M331R/P217A/Q94H/R138Q/T323A/T345S/T97I/V358M); test: Peptide competitive binding assay, HMy2.CIR cells expressing A3101; settings: for inhibition at 5 µM / 5-μM inhibition (%): peptide 5 μM vs FITC-labeled reference peptide 300 nM; for inhibition at 5 µM / inhibition at 15 µM / 5-μM inhibition (%) / 15-μM inhibition (%): 24 h, 4°C, flow cytometry; for inhibition at 15 µM / 15-μM inhibition (%): peptide 15 μM vs FITC-labeled reference peptide 300 nM; for pIC50: read-out: Affinity
T3 construct: expressed in transfected cells; host or cells: HMy2.CIR

[6] = target: HLA-A2402 (Homo sapiens, UniProt P04439, D101N/D140Y/D185E/E176V/E190D/F33S/G103R/G107R/I119L/I121M/I306V/K335N/L105A/L180Q/L300P/N151K/N90K/Q86E/Q94H/R106L/R138H/R89G/T104I/T345S/V100E/W191G/Y123F); test: cell-based; format: binding; settings: for inhibition at 5 µM / inhibition at 15 µM / 5-μM inhibition (%) / 15-μM inhibition (%): A2402, 24 h, 4°C, flow cytometry; for inhibition at 5 µM / 5-μM inhibition (%): peptide 5 μM vs FITC-labeled reference peptide 300 nM; for inhibition at 15 µM / 15-μM inhibition (%): peptide 15 μM vs FITC-labeled reference peptide 300 nM
[7] = A0201, peptide 5 μM vs FITC-labeled reference peptide 300 nM, 4°C, flow cytometry
[8] = A0201, peptide 15 μM vs FITC-labeled reference peptide 300 nM, 4°C, flow cytometry
[9] = A0203, peptide 5 μM vs FITC-labeled reference peptide 300 nM, 4°C, flow cytometry
[10] = A0203, peptide 15 μM vs FITC-labeled reference peptide 300 nM, 4°C, flow cytometry
[11] = A0203, class from inhibition at 5 and 15 μM of FITC-labeled reference peptide binding, read-out: Affinity
[12] = A3101, class from inhibition at 5 and 15 μM of FITC-labeled reference peptide binding
[13] = A0201, class from inhibition at 5 and 15 μM of FITC-labeled reference peptide binding, read-out: Affinity

Compound: CC[C@H](C)[C@H](NC(=O)[C@H](CO)NC(=O)[C@@H](NC(=O)[C@@H]1CCCN1C(=O)[C@H](CO)NC(=O)[C@H](Cc1ccc(O)cc1)NC(=O)[C@H](CCSC)NC(=O)[C@@H](N)CCCNC(=N)N)C(C)C)C(=O)N[C@@H](CC(C)C)C(=O)O [Peptide P9]
- inhibition at 5 µM [1]: 0%
- inhibition at 15 µM [1]: 4.54%
- pIC50 [2]: 4.82 to 5.30
- inhibition at 5 µM [2]: 0%
- inhibition at 15 µM [2]: 50.1%

Compound: AAGTGSSSK [Peptide P86]
- 5-μM inhibition (%) [3]: 1.04%
- 15-μM inhibition (%) [3]: 3.12%

Compound: ALFYKLDIV [Peptide P2]
- pIC50 [1]: 4.82 to 5.30
- inhibition at 5 µM [1, 7]: 23.2%
- inhibition at 15 µM [1, 8]: 70.5%
- pIC50 [2]: 4.82 to 5.30
- inhibition at 5 µM [2, 9]: 26.1%
- inhibition at 15 µM [2, 10]: 61.9%

Compound: ALQDSGSEV [Peptide P18]
- 5-μM inhibition (%) [1, 7]: 15.88%
- 15-μM inhibition (%) [1, 8]: 41.90%

Compound: ALQTGTEEL [Peptide P8]
- 5-μM inhibition (%) [1, 7]: 0.00%
- 15-μM inhibition (%) [1, 8]: 14.68%
- 5-μM inhibition (%) [2, 9]: 0.00%
- 15-μM inhibition (%) [2, 10]: 5.56%

Compound: ALTDIVPLT [Peptide P12]
- pIC50 [1]: 4.82 to 5.30
- inhibition at 5 µM [1, 7]: 28%
- inhibition at 15 µM [1, 8]: 72.2%

Compound: DAWEKIRLR [Peptide P104]
- inhibition at 5 µM ([4]; A3303): 71.8%
- inhibition at 15 µM ([4]; A3303): 82.5%
- pIC50 [4]: > 5.30

Compound: GMLMISSAV [Peptide P70]
- pIC50 [2, 11]: > 5.30
- inhibition at 5 µM [2, 9]: 71.4%
- inhibition at 15 µM [2, 10]: 85.5%

Compound: IIFAVLSIV [Peptide P5]
- inhibition at 5 µM [1, 7]: 20.6%
- inhibition at 15 µM [1, 8]: 42.8%
- pIC50 [2]: 4.82 to 5.30
- inhibition at 5 µM [2, 9]: 31%
- inhibition at 15 µM [2, 10]: 64.6%

Compound: IQNFRVYYR [Peptide P112]
- inhibition at 5 µM ([5]; A3101): 20.1%
- inhibition at 15 µM ([5]; A3101): 25.7%
- inhibition at 5 µM ([4]; A3303): 48.7%
- inhibition at 15 µM ([4]; A3303): 55.1%
- pIC50 [4]: 4.82 to 5.30

Compound: KAREFSSER [Peptide P100]
- pIC50 [5, 12]: 4.82 to 5.30
- inhibition at 5 µM ([5]; A3101): 42.9%
- inhibition at 15 µM ([5]; A3101): 95.1%

Compound: KTIIVHLNK [Peptide P19]
- 5-μM inhibition (%) [1, 7]: 0.00%
- 15-μM inhibition (%) [1, 8]: 4.54%

Compound: KVLKQVTEK [Peptide P87]
- 5-μM inhibition (%) [3]: 5.66%
- 15-μM inhibition (%) [3]: 16.76%

Compound: MAVFIHNFKR [Peptide P109]
- inhibition at 5 µM ([4]; A3303): 55.1%
- inhibition at 15 µM ([4]; A3303): 56.1%
- pIC50 [4]: > 5.30

Compound: MTKILEPFR [Peptide P102]
- inhibition at 5 µM ([5]; A3101): 60.2%
- inhibition at 15 µM ([5]; A3101): 88.3%
- pIC50 [5]: > 5.30
- inhibition at 5 µM ([4]; A3303): 69.5%
- inhibition at 15 µM ([4]; A3303): 70%
- pIC50 [4]: > 5.30

Compound: MYAPPISGR [Peptide P106]
- pIC50 ([4]; A3303, class from inhibition at 5 and 15 μM of FITC-labeled reference peptide binding): > 5.30
- inhibition at 5 µM ([4]; A3303): 72.8%
- inhibition at 15 µM ([4]; A3303): 81.5%

Compound: NITGILLTR [Peptide P107]
- 5-μM inhibition (%) ([4]; A3303): 34.61%
- 15-μM inhibition (%) ([4]; A3303): 49.22%

Compound: NLKTGKYAR [Peptide P101]
- 5-μM inhibition (%) ([5]; A3101): 32.90%
- 15-μM inhibition (%) ([5]; A3101): 41.10%

Compound: NYTNQIYEI [Peptide P47]
- pIC50 [6]: > 5.30
- inhibition at 5 µM [6]: 87.5%
- inhibition at 15 µM [6]: 94.5%

Compound: PYNTPVFAI [Peptide P63]
- pIC50 [6]: 4.82 to 5.30
- inhibition at 5 µM [6]: 25.7%
- inhibition at 15 µM [6]: 55.6%

Compound: QMQEDVISL [Peptide P4]
- 5-μM inhibition (%) [1, 7]: 10.81%
- 15-μM inhibition (%) [1, 8]: 44.70%
- 5-μM inhibition (%) [2, 9]: 0.00%
- 15-μM inhibition (%) [2, 10]: 0.00%

Compound: QTNSAILMQR [Peptide P105]
- 5-μM inhibition (%) ([4]; A3303): 29.22%
- 15-μM inhibition (%) ([4]; A3303): 45.63%

Compound: QTVYALFYR [Peptide P108]
- 5-μM inhibition (%) ([4]; A3303): 35.63%
- 15-μM inhibition (%) ([4]; A3303): 40.50%

Compound: RAKRRVVER [Peptide P98]
- pIC50 [5, 12]: 4.82 to 5.30
- inhibition at 5 µM ([5]; A3101): 47.9%
- inhibition at 15 µM ([5]; A3101): 82%

Compound: RIKCFNCGR [Peptide P96]
- 5-μM inhibition (%) ([5]; A3101): 0.00%
- 15-μM inhibition (%) ([5]; A3101): 0.00%

Compound: RQGTISFNF [Peptide P61]
- 5-μM inhibition (%) [6]: 12.82%
- 15-μM inhibition (%) [6]: 41.47%

Compound: RSNFKGSKR [Peptide P97]
- inhibition at 5 µM ([5]; A3101): 66.6%
- inhibition at 15 µM ([5]; A3101): 92.9%
- pIC50 [5]: > 5.30

Compound: SLAEGEIII [Peptide P3]
- pIC50 [1, 13]: 4.82 to 5.30
- inhibition at 5 µM [1, 7]: 26.1%
- inhibition at 15 µM [1, 8]: 66.2%
- pIC50 [2, 11]: 4.82 to 5.30
- inhibition at 5 µM [2, 9]: 0.12%
- inhibition at 15 µM [2, 10]: 51.1%

Compound: SLVDTIAIAV [Peptide P1]
- pIC50 [1, 13]: 4.82 to 5.30
- inhibition at 5 µM [1, 7]: 38%
- inhibition at 15 µM [1, 8]: 78.5%
- inhibition at 5 µM [2, 9]: 28.2%
- inhibition at 15 µM [2, 10]: 31.9%

Compound: TFYVDGAASR [Peptide P110]
- inhibition at 5 µM ([4]; A3303): 78.2%
- inhibition at 15 µM ([4]; A3303): 90.1%
- pIC50 [4]: > 5.30

Compound: TYQIYQEPF [Peptide P58]
- pIC50 [6]: > 5.30
- inhibition at 5 µM [6]: 54.1%
- inhibition at 15 µM [6]: 95.3%

Compound: VQMAVFIHNF [Peptide P64]
- pIC50 [6]: 4.82 to 5.30
- inhibition at 5 µM [6]: 31.2%
- inhibition at 15 µM [6]: 50.2%

Compound: VTGIRKNYR [Peptide P99]
- 5-μM inhibition (%) ([5]; A3101): 0.00%
- 15-μM inhibition (%) ([5]; A3101): 15.00%

Compound: WWMEYWQATW [Peptide P57]
- pIC50 [6]: 4.82 to 5.30
- inhibition at 5 µM [6]: 29.2%
- inhibition at 15 µM [6]: 70.7%

Compound: WYIKIFIII [Peptide P48]
- 5-μM inhibition (%) [6]: 1.56%
- 15-μM inhibition (%) [6]: 6.91%

Compound: WYIKIFIMI [Peptide P51]
- 5-μM inhibition (%) [6]: 3.34%
- 15-μM inhibition (%) [6]: 29.97%

Compound: YMLKHLVWA [Peptide P7]
- 5-μM inhibition (%) [1, 7]: 8.94%
- 15-μM inhibition (%) [1, 8]: 16.50%
- 5-μM inhibition (%) [2, 9]: 3.83%
- 15-μM inhibition (%) [2, 10]: 19.15%

Compound: YWQATWIPEW [Peptide P60]
- pIC50 [6]: > 5.30
- inhibition at 5 µM [6]: 97.5%
- inhibition at 15 µM [6]: 97.8%
